This note sets out measurements from PMC7998563 (Viruses, 2021).

The target of the experiment is T1, HCMV core nuclear egress complex (core NEC), pUL50-pUL53 (Human herpesvirus 5 strain AD169, UniProt P16791+P16794).
T1 construct: gene NEC2; pUL50 His-tagged, pUL53 coated on plate; heterodimer
The experiment in a line: ELISA-type pUL50-pUL53 interaction inhibition assay, anti-His-HRP detection. In kind it is binding. (In general: An ELISA detects its analyte on a solid surface through an enzyme-linked reagent.)

T1 sequence (P16791 1-181): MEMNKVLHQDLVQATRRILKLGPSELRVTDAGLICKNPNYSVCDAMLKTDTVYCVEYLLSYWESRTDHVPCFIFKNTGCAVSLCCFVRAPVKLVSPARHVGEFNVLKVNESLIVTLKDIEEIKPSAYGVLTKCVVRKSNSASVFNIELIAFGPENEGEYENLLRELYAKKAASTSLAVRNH
T1 sequence (P16794 50-292): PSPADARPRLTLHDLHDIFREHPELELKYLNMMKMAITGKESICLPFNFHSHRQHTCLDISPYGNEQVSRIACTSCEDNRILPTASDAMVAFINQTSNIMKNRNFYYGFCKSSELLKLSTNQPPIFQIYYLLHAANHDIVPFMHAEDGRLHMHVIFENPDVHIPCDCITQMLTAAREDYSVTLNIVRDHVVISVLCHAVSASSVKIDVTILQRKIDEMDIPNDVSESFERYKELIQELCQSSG

One may read the IC50 as the concentration at which inhibition is half-maximal. Higher therefore signals weaker potency in that assay. Turning to `O=C(O)c1ccccc1-c1c2cc(Br)c(=O)[c]([Hg+])c-2oc2cc(O)c(Br)cc12` [P10G08, merbromin], the concentration for half-maximal inhibition (IC50) is 38 nM.
